{"source": "ChEMBL document CHEMBL4673230", "about": "“Total Synthesis of Natural Lembehyne C and Investigation of Its Cytotoxic Properties” (J Nat Prod, 2020)", "key": {"Jurkat [1]": {"system": "Jurkat", "experiment": "Induction of apoptosis in human Jurkat cells assessed as early apoptotic cells at 200 nM after 24 hrs by Annexin V/7-AAD staining.based flow cytometric analysis relative to control", "assay_type": "functional"}, "Jurkat [2]": {"system": "Jurkat", "experiment": "Induction of apoptosis in human Jurkat cells assessed as late apoptotic cells after 24 hrs by Annexin V/7-AAD staining.based flow cytometric analysis", "assay_type": "functional, cell-based", "conditions": "dose 50-400 nM"}, "Jurkat [3]": {"system": "Jurkat", "experiment": "Induction of cell cycle arrest in human Jurkat cells assessed as accumulation at sub-G1 phase at 2 uM after 24 hrs by Guava Cell Cycle reagent based flow cytometric analysis relative to control", "assay_type": "functional"}, "Jurkat [4]": {"system": "Jurkat", "experiment": "Induction of DNA damage in human Jurkat cells assessed as increase in H2Ax phosphorylation at 2 uM after 2 hrs by Alexa Fluor555 staining based flow cytometric analysis", "assay_type": "functional, cell-based"}, "Jurkat [5]": {"system": "Jurkat", "experiment": "Induction of mitochondrial membrane potential loss in human Jurkat cells assessed as alife cells at 200 nM after 4 hrs by MitoSense Red/7-AAD. flow cytometric analysis (reference value: 98.47%)", "assay_type": "functional"}, "Jurkat [6]": {"system": "Jurkat", "experiment": "Induction of mitochondrial membrane potential loss in human Jurkat cells at 200 nM after 4 hrs by MitoSense Red/7-AAD. flow cytometric analysis", "assay_type": "functional, cell-based"}, "Jurkat [7]": {"system": "Jurkat", "experiment": "Induction of mitochondrial membrane potential loss in human Jurkat cells assessed as death cells at 200 nM after 4 hrs by MitoSense Red/7-AAD. flow cytometric analysis (reference value: 0.22%)", "assay_type": "functional"}, "Jurkat [8]": {"system": "Jurkat", "experiment": "Induction of mitochondrial membrane potential loss in human Jurkat cells assessed as stressed cells at 200 nM after 4 hrs by MitoSense Red/7-AAD. flow cytometric analysis (reference value: 1.12%)", "assay_type": "functional"}, "Jurkat [9]": {"system": "Jurkat", "experiment": "Induction of DNA damage in human Jurkat cells assessed as increase in H2Ax phosphorylation at 0.2 uM after 2 hrs by Alexa Fluor555 staining based flow cytometric analysis", "assay_type": "functional, cell-based"}, "Jurkat [10]": {"system": "Jurkat", "experiment": "Induction of ROS generation in human Jurkat cells assessed as apoptotic cells with clear mitochondrial damages at 200 nM after 4 hrs by MitoSox Red/annexin V-CF488A staining based flow cytometric analysis (reference value: 0.39%)", "assay_type": "functional"}, "Jurkat [11]": {"system": "Jurkat", "experiment": "Induction of ROS generation in human Jurkat cells assessed as apoptotic cells at 200 nM after 4 hrs by MitoSox Red/annexin V-CF488A staining based flow cytometric analysis (reference value: 3.18%)", "assay_type": "functional"}, "Jurkat [12]": {"system": "Jurkat", "experiment": "Induction of ROS generation in human Jurkat cells assessed as living undamaged cells at 200 nM after 2 hrs by MitoSox Red/annexin V-CF488A staining based flow cytometric analysis (reference value: 95.44%)", "assay_type": "functional"}, "Jurkat [13]": {"system": "Jurkat", "experiment": "Induction of ROS generation in human Jurkat cells assessed as mitochondria damaged cells at 200 nM after 4 hrs by MitoSox Red/annexin V-CF488A staining based flow cytometric analysis (reference value: 0%)", "assay_type": "functional"}}, "note": "Calls of active or inactive are those of the source. The calls are words filed in the database; no cut-off is given here."}
{"molecule": "C#C[C@H](O)CCCCCCCCCCC/C=C\\CC/C=C\\CCCCCCCCCCCCCCCC", "values": [{"measurement": "Activity", "setting": "Jurkat [1]", "result": 78.6, "unit": "%"}, {"measurement": "Activity", "setting": "Jurkat [2]", "result": "Dose-dependent effect"}, {"measurement": "Activity", "setting": "Jurkat [3]", "result": 15.1, "unit": "%"}, {"measurement": "Activity", "setting": "Jurkat [4]", "result": "inactive"}]}
{"molecule": "CN[C@@H]1C[C@H]2O[C@@](C)([C@@H]1OC)n1c3ccccc3c3c4c(c5c6ccccc6n2c5c31)C(=O)NC4", "note": "[STAUROSPORINE]", "values": [{"measurement": "Activity", "setting": "Jurkat [5]", "result": 53.44, "unit": "%"}, {"measurement": "Activity", "setting": "Jurkat [6]", "result": "Active"}, {"measurement": "Activity", "setting": "Jurkat [7]", "result": 15.87, "unit": "%"}, {"measurement": "Activity", "setting": "Jurkat [8]", "result": 30.37, "unit": "%"}]}
{"molecule": "COc1cc([C@@H]2c3cc4c(cc3[C@@H](O[C@@H]3O[C@@H]5CO[C@@H](C)O[C@H]5[C@H](O)[C@H]3O)[C@H]3COC(=O)[C@H]23)OCO4)cc(OC)c1O", "note": "[ETOPOSIDE]", "values": [{"measurement": "Activity", "setting": "Jurkat [9]", "result": "Active"}, {"measurement": "Activity", "setting": "Jurkat [10]", "result": 13.1, "unit": "%"}, {"measurement": "Activity", "setting": "Jurkat [11]", "result": 86.42, "unit": "%"}, {"measurement": "Activity", "setting": "Jurkat [12]", "result": 0.48, "unit": "%"}, {"measurement": "Activity", "setting": "Jurkat [13]", "result": 0, "unit": "%"}]}
{"molecule": "CC[C@@]1(O)C(=O)OCc2c1cc1n(c2=O)Cc2cc3ccccc3nc2-1", "note": "[CAMPTOTHECIN]", "values": [{"measurement": "Activity", "setting": "Jurkat [10]", "result": 1.92, "unit": "%"}, {"measurement": "Activity", "setting": "Jurkat [11]", "result": 68.24, "unit": "%"}, {"measurement": "Activity", "setting": "Jurkat [12]", "result": 29.83, "unit": "%"}, {"measurement": "Activity", "setting": "Jurkat [13]", "result": 0, "unit": "%"}]}
